Key:
COX-1 = biological target: T1, COX-1 (Ovis aries, UniProt P05979); test: COX Inhibitor screening ELISA assay kit, COX-1
T1 sequence (P05979 25-600): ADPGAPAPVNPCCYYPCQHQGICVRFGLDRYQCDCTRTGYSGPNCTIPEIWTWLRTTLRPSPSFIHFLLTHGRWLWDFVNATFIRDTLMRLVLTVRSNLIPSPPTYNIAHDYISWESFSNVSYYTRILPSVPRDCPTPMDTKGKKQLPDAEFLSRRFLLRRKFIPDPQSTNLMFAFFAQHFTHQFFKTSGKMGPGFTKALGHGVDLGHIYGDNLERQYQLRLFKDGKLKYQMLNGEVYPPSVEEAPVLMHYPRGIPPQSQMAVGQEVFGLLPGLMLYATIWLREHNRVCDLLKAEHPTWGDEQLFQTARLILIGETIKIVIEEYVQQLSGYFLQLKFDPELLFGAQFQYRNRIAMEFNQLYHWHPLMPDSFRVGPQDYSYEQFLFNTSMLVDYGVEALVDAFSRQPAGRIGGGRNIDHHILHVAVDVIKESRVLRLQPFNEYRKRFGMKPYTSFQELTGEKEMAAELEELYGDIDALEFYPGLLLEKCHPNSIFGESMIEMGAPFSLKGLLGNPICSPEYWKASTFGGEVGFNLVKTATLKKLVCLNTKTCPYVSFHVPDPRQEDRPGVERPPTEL

5-LOX = test: LOX inhibitory screening assay kit; type: biochemical; conditions: mean from 3 different assays
COX-2 = biological target: T2, COX-2 (Homo sapiens, UniProt P35354); test: COX Inhibitor screening ELISA assay kit, COX-2
T2 sequence (P35354 18-604): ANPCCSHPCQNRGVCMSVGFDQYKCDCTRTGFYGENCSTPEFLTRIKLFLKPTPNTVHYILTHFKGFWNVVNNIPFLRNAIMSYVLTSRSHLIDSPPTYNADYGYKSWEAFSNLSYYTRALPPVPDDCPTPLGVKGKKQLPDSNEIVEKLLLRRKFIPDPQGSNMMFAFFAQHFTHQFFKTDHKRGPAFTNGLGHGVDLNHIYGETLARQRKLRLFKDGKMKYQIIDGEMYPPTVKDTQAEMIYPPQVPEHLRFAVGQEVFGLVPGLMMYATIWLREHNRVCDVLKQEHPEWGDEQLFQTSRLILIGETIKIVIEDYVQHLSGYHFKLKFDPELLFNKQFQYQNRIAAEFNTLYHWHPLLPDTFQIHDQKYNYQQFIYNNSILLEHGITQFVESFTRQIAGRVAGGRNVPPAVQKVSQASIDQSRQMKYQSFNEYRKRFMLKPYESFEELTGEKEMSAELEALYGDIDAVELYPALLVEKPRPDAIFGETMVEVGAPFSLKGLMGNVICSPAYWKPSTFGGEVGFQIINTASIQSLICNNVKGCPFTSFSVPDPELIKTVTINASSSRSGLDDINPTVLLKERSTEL

IL-1β = test: serum IL-1β level by ELISA after paw edoema test; type: in vivo, rat; conditions: compared to the positive control group, n = 5
From the text: (§1) ELISA assays were used to assess the serum level for the inflammatory mediators TNF-α (Kit Cat. No MBS355371, MyBioSource, USA), and IL-1β (Kit Cat. No MBS8825017, MyBioSource, USA) based on the manufacture instructions.[54]

gastric tissue of rats = test: acute ulcerogenic test, histopathology of gastric tissue; type: in vivo; conditions: fasted rat stomach, H & E stain
From the text: (§2) The experimental procedures adopted to perform the acetic acid-induced writhing assay for the analgesic activities,[45] Paw edoema assay for the anti-inflammatory activities,[46] as well as the acute ulcerogenic test[47] have been carried out as described previously.

rat paw edoema = test: carrageen-induced rat paw edoema assay (anti-inflammatory activity); type: in vivo; design: Anti-inflammatory activity (% inhibition of edoema) 3 h: concentration or dose not given beside the values; conditions: for FIF% change in paw height (Mean ± SD) 0 h / FIF% change in paw height (Mean ± SD) 1 h / FIF% change in paw height (Mean ± SD) 2 h / FIF% change in paw height (Mean ± SD) 3 h: n = 5
From the text: as §2

TNF-α = test: serum TNF-α level by ELISA after paw edoema test; type: in vivo, rat; conditions: compared to the positive control group, n = 5
From the text: as §1

mice = test: acetic acid writhing test (analgesic activity); type: in vivo; conditions: for Number of writhing (20 min) (Mean ± SD): n = 5, control 40 ± 2.9
From the text: as §2

Compound	IC50 (COX-1)	IC50 (5-LOX)	IC50 (COX-2)	Serum level of IL-1β (IL-1β)	Ulcerogenic effect on gastric tissue (histopathological examination) (gastric tissue of rats)	FIF% change in paw height (Mean ± SD) 0 h (rat paw edoema)	FIF% change in paw height (Mean ± SD) 1 h (rat paw edoema)	FIF% change in paw height (Mean ± SD) 2 h (rat paw edoema)	Anti-inflammatory activity (% inhibition of edoema) 3 h (rat paw edoema)	FIF% change in paw height (Mean ± SD) 3 h (rat paw edoema)	Serum level of TNF-α (TNF-α)	Analgesic activity (% protection) (mice)	Number of writhing (20 min) (Mean ± SD) (mice)
N#Cc1ccc(COc2ccc(=O)n(-c3ccc(S(N)(=O)=O)cc3)n2)cc1 [Compound 5c, 4–(3-((4-Cyanobenzyl)oxy)-6-oxopyridazin-1(6H)-yl)benzenesulfonamide]	6.5 µM	7 µM	0.07 µM	–	–	–	–	–	–	–	–	–	–
NS(=O)(=O)c1ccc(-n2nc(OCc3ccccc3)ccc2=O)cc1 [Compound 5a, 4–(3-(Benzyloxy)-6-oxopyridazin-1(6H)-yl)benzenesulfonamide]	5 µM	7 µM	0.11 µM	–	–	–	–	–	–	–	–	–	–
Cc1ccc(S(=O)(=O)Oc2ccc(=O)n(-c3ccc(S(N)(=O)=O)cc3)n2)cc1 [Compound 7d, 6-Oxo-1–(4-sulfamoylphenyl)-1,6-dihydropyridazin-3-yl 4-methylbenzenesulfonate]	8.4 µM	3.5 µM	0.08 µM	–	–	–	–	–	–	–	–	–	–
NS(=O)(=O)c1ccc(-n2nc(O)ccc2=O)cc1 [Compound 3, 4–(3-Hydroxy-6-oxopyridazin-1(6H)-yl)benzenesulfonamide]	11.5 µM	2 µM	0.07 µM	–	–	–	–	–	–	–	–	–	–
CS(=O)(=O)Oc1ccc(=O)n(-c2ccc(S(N)(=O)=O)cc2)n1 [Compound 7a, 6-Oxo-1–(4-sulfamoylphenyl)-1,6-dihydropyridazin-3-yl methanesulfonate]	10.4 µM	3 µM	–	significantly lowered	normal texture	0.52 ± 0.04%	0.46 ± 0.09%	0.44 ± 0.05%	56%	0.34 ± 0.05 %	significantly lowered	67.5%	–
CCS(=O)(=O)Oc1ccc(=O)n(-c2ccc(S(N)(=O)=O)cc2)n1 [Compound 7b, 6-Oxo-1–(4-sulfamoylphenyl)-1,6-dihydropyridazin-3-yl ethanesulfonate]	12.6 µM	2.5 µM	0.06 µM	significantly lowered	mild inflammation	0.5 ± 0.07%	0.44 ± 0.09%	0.58 ± 0.04%	38.5%	0.48 ± 0.03 %	significantly lowered	65.0%	–
NS(=O)(=O)c1ccc(-n2nc(OS(=O)(=O)c3ccccc3)ccc2=O)cc1 [Compound 7c, 6-Oxo-1–(4-sulfamoylphenyl)-1,6-dihydropyridazin-3-yl benzenesulfonate]	8.4 µM	4 µM	0.08 µM	–	–	–	–	–	–	–	–	–	–
NS(=O)(=O)c1ccc(-n2nc(OS(=O)(=O)c3ccc(F)cc3)ccc2=O)cc1 [Compound 7f, 6-Oxo-1–(4-sulfamoylphenyl)-1,6-dihydropyridazin-3-yl 4-fluorobenzenesulfonate]	8.5 µM	6.5 µM	0.11 µM	–	–	–	–	–	–	–	–	–	–
O=C(O)Cc1ccccc1Nc1c(Cl)cccc1Cl [Diclofenac, reference compound]	–	–	–	–	inflammation and damage to the layers of the stomach	0.52 ± 0.04%	0.28 ± 0.04%	0.32 ± 0.04%	59%	0.32 ± 0.04 %	–	70.0%	12 ± 1.9
Cc1ccc(-c2cc(C(F)(F)F)nn2-c2ccc(S(N)(=O)=O)cc2)cc1 [Celecoxib, reference compound]	–	–	–	–	normal texture	0.5 ± 0.07%	0.44 ± 0.09%	0.52 ± 0.04%	38.5%	0.48 ± 0.04 %	–	60.0%	16 ± 0.9
COc1ccc(S(=O)(=O)Oc2ccc(=O)n(-c3ccc(S(N)(=O)=O)cc3)n2)cc1 [Compound 7e, 6-Oxo-1–(4-sulfamoylphenyl)-1,6-dihydropyridazin-3-yl 4-methoxybenzenesulfonate]	6.5 µM	5 µM	0.09 µM	–	–	–	–	–	–	–	–	–	–
NS(=O)(=O)c1ccc(-n2nc(OCc3ccc([N+](=O)[O-])cc3)ccc2=O)cc1 [Compound 5b, 4–(3-((4-Nitrobenzyl)oxy)-6-oxopyridazin-1(6H)-yl)benzenesulfonamide]	9.5 µM	5 µM	0.14 µM	–	–	–	–	–	–	–	–	–	–
